{
  "source": "patent US20140072662A1",
  "about": "“Andrographis Paniculata Compositions and Methods for Treatment of Addictions” (Omeros Corporation, priority 2012, published 2014)",
  "key": {"[1]": {"biological_target": "T1, PPAR α (Mus musculus, UniProt P23204)", "T1 construct": "host or cells: 3T3-L1", "T1 sequence (P23204 1-468)": "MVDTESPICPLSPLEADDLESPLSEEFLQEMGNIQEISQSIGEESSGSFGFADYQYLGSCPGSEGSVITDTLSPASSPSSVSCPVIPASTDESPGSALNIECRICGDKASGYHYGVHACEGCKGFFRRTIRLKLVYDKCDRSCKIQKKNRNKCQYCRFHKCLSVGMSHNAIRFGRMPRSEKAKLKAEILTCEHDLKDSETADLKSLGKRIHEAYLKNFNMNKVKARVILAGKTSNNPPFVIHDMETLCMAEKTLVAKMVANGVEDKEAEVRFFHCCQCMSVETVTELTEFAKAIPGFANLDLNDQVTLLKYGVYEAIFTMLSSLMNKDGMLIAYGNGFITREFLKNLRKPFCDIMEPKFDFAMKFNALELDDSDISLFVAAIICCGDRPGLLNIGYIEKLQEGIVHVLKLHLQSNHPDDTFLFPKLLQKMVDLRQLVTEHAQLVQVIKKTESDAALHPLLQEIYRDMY", "settings": "3T3-L1 cells; cited from earlier work"}, "[2]": {"biological_target": "T2, PPARγ (Mus musculus, UniProt P37238)", "T2 construct": "host or cells: 3T3-L1", "T2 sequence (P37238 1-505)": "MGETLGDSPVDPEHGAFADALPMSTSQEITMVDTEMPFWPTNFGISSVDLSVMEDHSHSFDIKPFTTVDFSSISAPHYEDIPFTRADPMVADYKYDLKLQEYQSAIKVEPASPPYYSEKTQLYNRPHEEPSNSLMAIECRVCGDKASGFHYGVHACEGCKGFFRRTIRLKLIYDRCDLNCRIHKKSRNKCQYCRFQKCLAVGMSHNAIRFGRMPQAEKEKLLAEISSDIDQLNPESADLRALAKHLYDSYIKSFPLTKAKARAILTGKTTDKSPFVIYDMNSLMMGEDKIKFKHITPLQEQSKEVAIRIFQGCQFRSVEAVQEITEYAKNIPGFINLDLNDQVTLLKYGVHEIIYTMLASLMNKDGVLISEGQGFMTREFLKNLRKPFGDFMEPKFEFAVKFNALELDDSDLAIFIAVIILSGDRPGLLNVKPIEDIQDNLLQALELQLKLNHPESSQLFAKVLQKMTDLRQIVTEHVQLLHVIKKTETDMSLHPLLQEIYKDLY", "settings": "3T3-L1 cells; cited from earlier work"}, "[3]": {"biological_target": "T3, PPAR δ ligand binding domain (Homo sapiens, UniProt Q03181)", "T3 sequence (Q03181 211-439 limits assumed)": "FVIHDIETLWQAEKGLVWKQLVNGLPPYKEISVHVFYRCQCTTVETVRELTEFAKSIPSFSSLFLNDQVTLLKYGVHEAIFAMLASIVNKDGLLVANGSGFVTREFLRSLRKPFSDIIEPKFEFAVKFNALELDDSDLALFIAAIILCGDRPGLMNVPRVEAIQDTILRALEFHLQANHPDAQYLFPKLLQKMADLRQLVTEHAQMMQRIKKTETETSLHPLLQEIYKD", "settings": "cited from earlier work"}, "[4]": {"biological_target": "PPAR γ ligand binding domain (Homo sapiens, UniProt P37231)", "sequence (P37231 238-503 limits assumed, species assumed)": "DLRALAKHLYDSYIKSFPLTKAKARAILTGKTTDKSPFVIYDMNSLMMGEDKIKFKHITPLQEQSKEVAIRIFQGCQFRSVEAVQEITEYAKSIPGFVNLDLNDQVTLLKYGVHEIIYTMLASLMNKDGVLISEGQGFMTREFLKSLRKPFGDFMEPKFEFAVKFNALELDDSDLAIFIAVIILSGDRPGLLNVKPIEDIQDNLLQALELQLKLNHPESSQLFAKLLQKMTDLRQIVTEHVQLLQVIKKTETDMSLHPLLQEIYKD", "settings": "cited from earlier work"}, "[5]": {"test_system": "msP rats", "assay": "Yohimbine-induced reinstatement of alcohol seeking in msP rats", "type": "in vivo, rat", "settings": "yohimbine 1.25 mg/kg i.p.; p<0.001", "description": "The study was conducted using standard operant chambers (Med Associate, St Albans, Vt.) located in sound-attenuating, ventilated environmental cubicles. Each chamber was equipped with a drinking reservoir (volume capacity: 0.30 ml) positioned 4 cm above the grid floor in the centre of the front panel of the chamber, and two retractable levers located 3 cm to the right or to the left of the drinking receptacle. Auditory and visual stimuli were presented via a speaker and a light located on the front panel. A microcomputer controlled the delivery of fluids, presentation of auditory and visual stimuli, and recording of the behavioral data.\nDuring the first 6 days of training, rats were allowed to lever-press for a 10% (v/v) alcohol solution containing 0.2% (w/v) saccharin solution, on a FR-1 schedule. In the following days, msP rats were trained to self-administer 10% alcohol solution (v/v) on a FR-1, time out 5 second (TO 5 s.) schedule of reinforcement. The TO period was signalled by illumination of a white house light above the right lever for 5 s. 10% (v/v) alcohol self-administration continued until stable baseline of responding was achieved.\nAfter the last alcohol self-administration session, animals were subjected to 30-min extinction sessions. […]"}, "[6]": {"test_system": "Wistar rats", "assay": "Yohimbine-induced reinstatement of nicotine seeking in Wistar rats", "type": "in vivo, rat", "settings": "yohimbine 1.25 mg/kg IP; p<0.001", "description": "Animals are anesthetized by intramuscular injection of 100-150 μl of a solution containing tiletamine cloridrate (58.17 mg/ml) and zolazepam cloridrate (57.5 mg/ml). For IV surgery, incisions are made to expose the right jugular vein. A catheter made from micro-renathane tubing (I.D.=0.020 inches, O.D.=0.037 inches) is subcutaneously positioned between the vein and the back. After insertion into the vein, the proximal end of the catheter is anchored to the muscles underlying the vein with surgical silk. The distal end of the catheter is attached to a stainless-steel cannula bent at a 90° angle. The cannula is inserted in a support made by dental cement on the back of the animals covered with a plastic cap. […] Body weights are monitored every day and catheter patency is confirmed approximately every 3 days with an injection of 0.2-0.3 ml of thiopental sodium (250 mg/ml) solution. […]\nThe day after the last extinction session, in a within subject counterbalanced design animals are given Andrographis Paniculata extract OS at the doses of 0, 150; 450 mg/kg, given 1 hour prior to administration of yohimbine (1.25 mg/kg) or its vehicle. 30 minutes following the administration of yohimbine, animals (N=15) are placed in the self-administration apparatus, and lever pressesis recorded for 2 hours. […]"}},
  "data": [
    {"smiles": "CCCC\\C=C/C=C/C=C\\CCCCCCCC(=O)O", "note": "[PUA, punicic acid]", "values": [
      {"measurement": "PPAR α reporter activity", "setting": "[1]", "result": "dose-dependent increase"},
      {"measurement": "PPAR γ reporter activity", "setting": "[2]", "result": "dose-dependent increase"},
      {"measurement": "binding to PPAR δ ligand binding domain", "setting": "[3]", "result": "bind"},
      {"measurement": "binding to PPAR γ ligand binding domain", "setting": "[4]", "result": "bind"}
    ]},
    {"smiles": "COC(=O)[C@@H]1[C@H]2C[C@H]3c4[nH]c5ccccc5c4CCN3C[C@@H]2CC[C@@H]1O", "note": "[yohimbine]", "values": [
      {"measurement": "reinstatement of operant response for alcohol vs extinction", "setting": "[5]", "result": "significantly reinstated the operant response for alcohol"},
      {"measurement": "reinstatement of responding for nicotine vs extinction", "setting": "[6]", "result": "significant reinstatement of responding"}
    ]}
  ]
}
